# According to PMC5124248, “Antitumor activity of TY-011 against gastric cancer by inhibiting Aurora A, Aurora B and VEGFR2 kinases” (Journal of Experimental & Clinical Cancer Research : CR, 2016):
# Read-outs that look alike come from different tables or passages of the source.
# Legend:
# SGC-7901 cells = test: Cell cycle analysis by flow cytometry, SGC-7901; assay type: cell-based, human
# Method: Cell cycle distribution was determined by flow cytometry measurement of DNA content after cells were incubated with RNase A (50 μg/ml) and propidium iodide (50 μg/ml). The cellular DNA content was measured on a flow cytometer (Guava EasyCyte 6HT-2 L, Merck Millipore, Billerica, MA, USA). The percentage of each population was analyzed using the InCyte software. At least 20 000 cells were analyzed for each data point.
# Aurora A = target: T1, Aurora A (Homo sapiens, UniProt O14965); test: HTRF KinEASE-STK kinase assay, Aurora A; assay type: biochemical
# T1 construct: gift from Professor Jia Li, Shanghai Institute of Materia Medica/Chinese Academy of Sciences
# T1 sequence (O14965 1-403): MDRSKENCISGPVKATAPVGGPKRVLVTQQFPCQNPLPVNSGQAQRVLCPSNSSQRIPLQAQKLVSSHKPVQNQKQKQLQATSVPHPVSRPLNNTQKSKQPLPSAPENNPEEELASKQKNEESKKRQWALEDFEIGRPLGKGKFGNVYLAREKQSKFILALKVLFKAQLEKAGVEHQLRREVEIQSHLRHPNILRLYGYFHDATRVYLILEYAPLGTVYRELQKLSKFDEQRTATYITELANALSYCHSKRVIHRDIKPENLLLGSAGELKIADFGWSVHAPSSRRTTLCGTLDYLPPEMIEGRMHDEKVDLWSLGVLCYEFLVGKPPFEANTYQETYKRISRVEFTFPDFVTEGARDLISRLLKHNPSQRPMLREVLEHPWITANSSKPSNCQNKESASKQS
# From the text: The inhibition of TY-011 on activity of Aurora A, Aurora B and VEGFR2 was characterized by HTRF® KinEASE™-STK/TK kit according to the manufacturer’s instructions (Cisbio Assays, Codolet, France). Aurora A and Aurora B were gifts from Professor Jia Li, Shanghai Institute of Materia Medica/Chinese Academy of Sciences. VEGFR2 was purchased from Carna Biosciences (Kobe, Japan).
# MKN-45 cells = test: CCK-8 cell proliferation assay, MKN-45; assay type: cell-based; details: Homo sapiens; MKN-45, CCK-8, Fig. 3
# Method: During the logarithmic growth phase, each cell line was seeded in a 96-well tissue culture plate (Thermo Fisher Scientific, Waltham, MA, USA) at a predetermined density in complete medium, attached overnight and treated with compound for the indicated time. The medium was discarded and replaced with 10% CCK-8 (Dojindo, Kumamoto, Japan) in complete medium, then incubated the plates for another 2 h. The OD450 was measured with SpectraMax M5 (Molecular Devices, CA, USA). A background absorbance of ODblank was subtracted from all wells. The survival rate was determined with following formula: Survival rate (%) = ODcompound/ODDMSO × 100%. The IC50 values were calculated by concentration − response curve fitting using the four parameter method.
# p-Aurora A (T288) = test: Cellular Aurora A phosphorylation (western blot, immunofluorescence) in MGC-803 cells; assay type: cell-based, human
# Method: The proteins of whole cell lysates were prepared in RIPA buffer containing protease and phosphatase inhibitors (Thermo Fisher Scientific, Waltham, MA, USA), and quantified by the bicinchoninic acid (BCA) method. Immunoblotting analysis of proteins in cell lysates was performed as previously described. Primary antibodies used were as follows: anti-Aurora A (#12100), anti-p-Aurora A (Thr288) (#3079), anti-Histone H3 (#4499), and anti-p-Histone H3 (Ser10) (#9701), and anti-cleaved caspase 3 (#9661) were purchased from Cell Signaling Technology (Danvers, MA, USA); anti-PARP-1 (#sc-8007) and anti-GAPDH (#sc-25778) were purchased from Santa Cruz (CA, USA).
# Cells were cultured on glass slides coated with 0.05 mg/ml PDL (Sigma-aldrich, St. Louis, MO, USA) in the presence of TY-011 (0.8 μM) or equivalent amount of DMSO for 24 h. The cells were fixed in 4% paraformaldehyde at room temperature, then permeabilized with 0.15% Triton-X100 and blocked in 3% BSA in PBS. The primary antibodies were incubated with slides at 1:100 dilution in PBS containing 3% BSA in a wet chamber at 4 °C overnight. […] The images were captured with FCFM (fluorescence confocal microscope) (Olympus FV1000 IX81, Tokyo, Japan) under appropriate excitation and emission filters or phase-contrast microscope (Olympus IX73, Tokyo, Japan). […]
compound,measurement,setting,value
"CCc1cc2c(cn1)C(c1ccccc1Cl)=Nc1c(n[nH]c1C)N2 [TY-011, 9-(2-chloro-phenyl)-6-ephyl-1-methyl-2,4-dihydro-2,3,4,7,10-pentaaza-benzo[f]azulene]",G2/M phase cells,"SGC-7901 cells; SGC-7901, 0.5 μM, 12 h (from 31.6%)",45.1%
same,cells with >4 N DNA content,"SGC-7901 cells; SGC-7901, 0.5 μM, 48 h",13.9%
same,proportion of cells with >4 N DNA content,"SGC-7901 cells; SGC-7901, 1 μM, 24 h (6.7% no treatment)",14.7%
same,proportion of G2/M phase cells,"SGC-7901 cells; SGC-7901, 1 μM, 24 h (34.0% no treatment)",78.6%
same,IC50,"Aurora A; Table S1, read-out: IC50 Aurora A",100 nM
same,IC50,"Aurora A; mean ± SD of three independent experiments, read-out: Aurora A IC50",102 ± 10.1 nM
same,IC50,MKN-45 cells,130 ± 10 nM
same,"Aurora A green foci in mitotic cells, immunofluorescence","p-Aurora A (T288); MGC-803, 0.8 μM, 24 h",became weaker or even disappeared
same,"p-Aurora A (T288), western blot","p-Aurora A (T288); MGC-803 synchronized with nocodazole (100 nM) 16 h, then various concentrations for 24 h",decreased in a concentration-dependent manner
